# Measured values published in ChEMBL document CHEMBL4387741, “Optimization of novel reversible Bruton's tyrosine kinase inhibitors identified using Tethering-fragment-based screens” (Bioorg Med Chem, 2019).
# Assays:
# [1] = system: Mast/stem cell growth factor receptor Kit (Homo sapiens), P10721 [L576P]; assay: Inhibition of human partial length KIT L576P mutant (Y545 to D952 residues) expressed in bacterial expression system at 1 uM by Kinomescan method relative to control
# [2] = biological target: Cyclin-dependent kinase 9 (Homo sapiens) (UniProt P50750); assay: Inhibition of wild-type human full length CDK9 (M1 to F372 residues) expressed in bacterial expression system at 1 uM by Kinomescan method relative to control
# Sequence of Cyclin-dependent kinase 9 (Homo sapiens) (P50750 whole entry, the tested form may be a part): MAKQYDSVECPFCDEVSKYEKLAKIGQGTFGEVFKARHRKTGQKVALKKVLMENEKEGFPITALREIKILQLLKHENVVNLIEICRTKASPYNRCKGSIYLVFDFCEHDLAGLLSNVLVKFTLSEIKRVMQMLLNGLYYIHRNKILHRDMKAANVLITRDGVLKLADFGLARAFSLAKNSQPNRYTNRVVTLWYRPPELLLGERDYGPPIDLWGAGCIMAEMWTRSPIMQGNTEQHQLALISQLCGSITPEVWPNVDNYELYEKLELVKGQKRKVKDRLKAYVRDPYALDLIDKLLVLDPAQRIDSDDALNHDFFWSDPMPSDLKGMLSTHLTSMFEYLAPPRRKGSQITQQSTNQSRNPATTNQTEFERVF
# [3] = biological target: Cyclin-dependent kinase 4/cyclin D1 (Homo sapiens) (UniProt P11802+P24385); assay: Inhibition of wild-type human full length CDK4/cyclinD1 (M1 to E303 residues) expressed in mammalian expression system at 1 uM by Kinomescan method relative to control
# [4] = biological target: Rho-associated protein kinase 2 (Homo sapiens) (UniProt O75116); assay: Inhibition of wild-type human partial length ROCK2 (M1 to T431 residues) expressed in mammalian expression system at 1 uM by Kinomescan method relative to control
# [5] = biological target: Serine/threonine-protein kinase TBK1 (Homo sapiens) (UniProt Q9UHD2); assay: Inhibition of wild-type human full length TBK1 (M1 to L729 residues) expressed in mammalian expression system at 1 uM by Kinomescan method relative to control
# [6] = biological target: SRSF protein kinase 1 (Homo sapiens) (UniProt Q96SB4); assay: Inhibition of wild-type human full length SRPK1 (M1 to S655 residues) expressed in bacterial expression system at 1 uM by Kinomescan method relative to control
# Sequence of SRSF protein kinase 1 (Homo sapiens) (Q96SB4 whole entry, the tested form may be a part): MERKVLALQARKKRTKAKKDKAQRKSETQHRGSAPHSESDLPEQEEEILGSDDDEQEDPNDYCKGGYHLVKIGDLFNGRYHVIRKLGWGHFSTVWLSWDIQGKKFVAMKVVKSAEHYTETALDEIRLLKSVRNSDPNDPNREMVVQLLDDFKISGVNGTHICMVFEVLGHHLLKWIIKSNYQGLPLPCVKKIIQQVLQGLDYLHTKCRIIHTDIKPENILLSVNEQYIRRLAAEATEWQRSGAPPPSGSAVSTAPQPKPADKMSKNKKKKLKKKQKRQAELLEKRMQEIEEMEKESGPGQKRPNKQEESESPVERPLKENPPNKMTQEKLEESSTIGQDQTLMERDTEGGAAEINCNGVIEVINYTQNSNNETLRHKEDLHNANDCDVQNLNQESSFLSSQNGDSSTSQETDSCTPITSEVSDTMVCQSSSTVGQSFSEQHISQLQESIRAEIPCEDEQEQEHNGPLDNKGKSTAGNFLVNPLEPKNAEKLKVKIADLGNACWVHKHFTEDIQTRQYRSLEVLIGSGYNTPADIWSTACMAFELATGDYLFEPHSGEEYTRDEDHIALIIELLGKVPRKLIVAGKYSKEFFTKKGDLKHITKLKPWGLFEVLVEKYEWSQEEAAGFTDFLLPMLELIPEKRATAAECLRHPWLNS
# [7] = biological target: MAP kinase-interacting serine/threonine-protein kinase 1 (Homo sapiens) (UniProt Q9BUB5); assay: Inhibition of wild-type human full length MKNK1 (M1 to L424 residues) expressed in mammalian expression system at 1 uM by Kinomescan method relative to control
# [8] = biological target: Serine/threonine-protein kinase Nek5 (Homo sapiens) (UniProt Q6P3R8); assay: Inhibition of wild-type human partial length NEK5 (M1 to M279 residues) expressed in bacterial expression system at 1 uM by Kinomescan method relative to control
# [9] = biological target: RAC-alpha serine/threonine-protein kinase (Homo sapiens) (UniProt P31749); assay: Inhibition of wild-type human partial length AKT1 expressed in bacterial expression system at 1 uM by Kinomescan method relative to control
# Sequence of RAC-alpha serine/threonine-protein kinase (Homo sapiens) (P31749 whole entry, the tested form may be a part): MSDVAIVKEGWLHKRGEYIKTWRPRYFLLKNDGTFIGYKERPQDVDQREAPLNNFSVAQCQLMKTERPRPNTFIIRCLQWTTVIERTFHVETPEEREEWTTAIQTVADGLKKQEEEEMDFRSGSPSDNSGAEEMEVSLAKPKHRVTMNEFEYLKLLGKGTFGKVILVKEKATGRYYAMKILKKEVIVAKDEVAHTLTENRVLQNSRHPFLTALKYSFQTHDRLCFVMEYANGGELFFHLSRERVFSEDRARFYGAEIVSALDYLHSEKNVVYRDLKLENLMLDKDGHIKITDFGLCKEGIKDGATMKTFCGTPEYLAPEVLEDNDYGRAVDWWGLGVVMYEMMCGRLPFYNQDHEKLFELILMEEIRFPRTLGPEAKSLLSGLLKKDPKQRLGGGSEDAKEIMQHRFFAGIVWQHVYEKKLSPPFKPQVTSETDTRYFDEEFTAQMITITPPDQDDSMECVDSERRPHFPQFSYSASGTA
# [10] = biological target: Receptor-interacting serine/threonine-protein kinase 2 (Homo sapiens) (UniProt O43353); assay: Inhibition of wild-type human partial length RIPK2 (M1 to K310 residues) expressed in bacterial expression system at 1 uM by Kinomescan method relative to control
# [11] = biological target: Serine/threonine-protein kinase LATS2 (Homo sapiens) (UniProt Q9NRM7); assay: Inhibition of wild-type human partial length LATS2 (Q641 to V1088 residues) expressed in mammalian expression system at 1 uM by Kinomescan method relative to control
# [12] = biological target: Cyclin-dependent kinase-like 5 (Homo sapiens) (UniProt O76039); assay: Inhibition of wild-type human partial length CDKL5 (M1 to S337 residues) expressed in mammalian expression system at 1 uM by Kinomescan method relative to control
# Sequence of Cyclin-dependent kinase-like 5 (Homo sapiens) (O76039 whole entry, the tested form may be a part): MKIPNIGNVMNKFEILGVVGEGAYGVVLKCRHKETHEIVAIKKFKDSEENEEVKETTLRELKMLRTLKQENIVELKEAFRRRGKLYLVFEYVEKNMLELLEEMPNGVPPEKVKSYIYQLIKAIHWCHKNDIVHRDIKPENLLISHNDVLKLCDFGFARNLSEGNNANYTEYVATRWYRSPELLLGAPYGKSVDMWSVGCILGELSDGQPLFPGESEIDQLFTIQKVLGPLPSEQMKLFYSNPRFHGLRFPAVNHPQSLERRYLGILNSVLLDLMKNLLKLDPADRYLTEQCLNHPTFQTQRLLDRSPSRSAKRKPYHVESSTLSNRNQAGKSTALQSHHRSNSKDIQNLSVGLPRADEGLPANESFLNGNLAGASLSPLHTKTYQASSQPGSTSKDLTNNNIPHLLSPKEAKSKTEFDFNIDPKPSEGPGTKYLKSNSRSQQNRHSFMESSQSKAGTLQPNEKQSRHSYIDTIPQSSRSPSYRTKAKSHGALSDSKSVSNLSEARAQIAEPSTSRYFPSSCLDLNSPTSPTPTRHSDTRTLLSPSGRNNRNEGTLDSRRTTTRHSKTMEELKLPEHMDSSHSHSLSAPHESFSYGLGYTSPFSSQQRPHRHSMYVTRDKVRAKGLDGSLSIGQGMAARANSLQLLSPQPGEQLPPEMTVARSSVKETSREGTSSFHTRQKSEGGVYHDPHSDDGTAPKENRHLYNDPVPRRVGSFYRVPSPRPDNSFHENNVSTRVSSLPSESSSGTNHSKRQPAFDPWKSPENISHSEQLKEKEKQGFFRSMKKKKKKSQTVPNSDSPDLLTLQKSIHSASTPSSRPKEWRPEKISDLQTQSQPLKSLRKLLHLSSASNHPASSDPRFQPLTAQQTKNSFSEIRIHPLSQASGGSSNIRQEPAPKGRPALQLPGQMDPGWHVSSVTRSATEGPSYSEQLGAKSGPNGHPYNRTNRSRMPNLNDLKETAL
# [13] = biological target: Tyrosine-protein kinase BTK (Homo sapiens, UniProt Q06187); assay: Inhibition of BTK in human PBMC assessed as reduction in CD69 expression
# [14] = system: Epidermal growth factor receptor (Homo sapiens), P00533 [L861Q]; assay: Inhibition of human partial length EGFR L861Q mutant (R669 to V1011 residues) expressed in bacterial expression system at 10 uM by Kinomescan method relative to control
# [15] = biological target: Myosin-IIIb (Homo sapiens) (UniProt Q8WXR4); assay: Inhibition of wild-type human partial length MYO3B (M1 to D357 residues) expressed in bacterial expression system at 10 uM by Kinomescan method relative to control
# [16] = biological target: Mitogen-activated protein kinase 9 (Homo sapiens) (UniProt P45984); assay: Inhibition of wild-type human full length JNK2 (M1 to Q382 residues) expressed in mammalian expression system at 10 uM by Kinomescan method relative to control
# [17] = biological target: Phosphatidylinositol 4-phosphate 3-kinase C2 domain-containing subunit beta (Homo sapiens) (UniProt O00750); assay: Inhibition of wild-type human partial length PIK3C2B (M1 to L1634 residues) expressed in mammalian expression system at 10 uM by Kinomescan method relative to control
# [18] = biological target: Protein kinase C iota type (Homo sapiens) (UniProt P41743); assay: Inhibition of wild-type human partial length PRKCI (H215 to V587 residues) expressed in mammalian expression system at 10 uM by Kinomescan method relative to control
# Sequence of Protein kinase C iota type (Homo sapiens) (P41743 whole entry, the tested form may be a part): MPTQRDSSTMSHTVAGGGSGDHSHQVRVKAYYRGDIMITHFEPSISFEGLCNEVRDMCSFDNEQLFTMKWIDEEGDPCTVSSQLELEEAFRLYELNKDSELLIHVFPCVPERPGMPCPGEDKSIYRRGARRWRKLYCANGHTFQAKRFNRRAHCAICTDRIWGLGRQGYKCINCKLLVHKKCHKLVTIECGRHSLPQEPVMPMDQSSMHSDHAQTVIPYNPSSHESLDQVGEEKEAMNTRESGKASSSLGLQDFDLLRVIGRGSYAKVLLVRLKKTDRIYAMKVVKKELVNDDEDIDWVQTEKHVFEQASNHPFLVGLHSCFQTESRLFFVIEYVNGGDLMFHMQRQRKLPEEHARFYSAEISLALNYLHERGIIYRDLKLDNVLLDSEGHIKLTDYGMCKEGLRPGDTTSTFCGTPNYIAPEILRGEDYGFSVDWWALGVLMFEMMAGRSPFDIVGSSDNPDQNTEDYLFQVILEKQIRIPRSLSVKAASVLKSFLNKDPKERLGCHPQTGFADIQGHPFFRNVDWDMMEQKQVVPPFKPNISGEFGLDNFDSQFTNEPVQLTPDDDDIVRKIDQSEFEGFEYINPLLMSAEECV
# [19] = biological target: TGF-beta receptor type-2 (Homo sapiens) (UniProt P37173); assay: Inhibition of wild-type human partial length TGFBR2 (I218 to K567 residues) expressed in bacterial expression system at 10 uM by Kinomescan method relative to control
# Sequence of TGF-beta receptor type-2 (Homo sapiens) (P37173 whole entry, the tested form may be a part): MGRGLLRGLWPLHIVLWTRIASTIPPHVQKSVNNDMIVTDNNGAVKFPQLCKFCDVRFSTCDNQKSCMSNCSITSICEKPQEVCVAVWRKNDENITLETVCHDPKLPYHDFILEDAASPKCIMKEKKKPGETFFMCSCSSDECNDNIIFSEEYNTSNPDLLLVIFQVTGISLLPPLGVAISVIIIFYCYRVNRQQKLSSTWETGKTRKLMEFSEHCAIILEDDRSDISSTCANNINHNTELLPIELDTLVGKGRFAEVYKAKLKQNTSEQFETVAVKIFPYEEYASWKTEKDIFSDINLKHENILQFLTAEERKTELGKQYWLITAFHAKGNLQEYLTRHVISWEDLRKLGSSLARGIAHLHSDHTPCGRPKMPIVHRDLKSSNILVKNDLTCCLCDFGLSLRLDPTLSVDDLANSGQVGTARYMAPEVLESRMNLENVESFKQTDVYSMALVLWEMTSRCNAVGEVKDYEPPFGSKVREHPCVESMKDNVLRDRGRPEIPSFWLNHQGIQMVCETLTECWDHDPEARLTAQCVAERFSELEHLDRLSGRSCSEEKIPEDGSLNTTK
# [20] = biological target: Misshapen-like kinase 1 (Homo sapiens) (UniProt Q8N4C8); assay: Inhibition of wild-type human partial length MINK (M1 to K312 residues) expressed in mammalian expression system at 10 uM by Kinomescan method relative to control
# [21] = biological target: Cyclin-dependent kinase-like 1 (Homo sapiens) (UniProt Q00532); assay: Inhibition of wild-type human full length CDKL1 (M1 to I358 residues) expressed in mammalian expression system at 10 uM by Kinomescan method relative to control
# [22] = biological target: Receptor-type tyrosine-protein kinase FLT3 (Homo sapiens) (UniProt P36888); assay: Inhibition of wild-type human partial length autoinhibited FLT3 (H564 to Y969 residues) expressed in mammalian expression system at 10 uM by Kinomescan method relative to control
# [23] = biological target: Serine/threonine-protein kinase SIK1 (Homo sapiens) (UniProt P57059); assay: Inhibition of wild-type human partial length SIK (M1 to Y304 residues) expressed in bacterial expression system at 10 uM by Kinomescan method relative to control
# [24] = system: Mast/stem cell growth factor receptor Kit (Homo sapiens), P10721 [L576P]; assay: Inhibition of human partial length KIT L576P mutant (Y545 to D952 residues) expressed in bacterial expression system at 10 uM by Kinomescan method relative to control
# [25] = biological target: Protein-tyrosine kinase 2-beta (Homo sapiens) (UniProt Q14289); assay: Inhibition of wild-type human full length PYK2 (M1 to E967 residues) expressed in bacterial expression system at 10 uM by Kinomescan method relative to control
# [26] = biological target: Homeodomain-interacting protein kinase 4 (Homo sapiens) (UniProt Q8NE63); assay: Inhibition of wild-type human partial length HIPK4 (M1 to V384 residues) expressed in bacterial expression system at 10 uM by Kinomescan method relative to control
# [27] = biological target: Tyrosine-protein kinase ZAP-70 (Homo sapiens) (UniProt P43403); assay: Inhibition of wild-type human partial length ZAP70 (D20 to G299 residues) expressed in mammalian expression system at 10 uM by Kinomescan method relative to control
# [28] = biological target: Dual specificity mitogen-activated protein kinase kinase 6 (Homo sapiens) (UniProt P52564); assay: Inhibition of wild-type human partial length MEK6 (K36 to D334 residues) expressed in bacterial expression system at 10 uM by Kinomescan method relative to control
# Sequence of Dual specificity mitogen-activated protein kinase kinase 6 (Homo sapiens) (P52564 whole entry, the tested form may be a part): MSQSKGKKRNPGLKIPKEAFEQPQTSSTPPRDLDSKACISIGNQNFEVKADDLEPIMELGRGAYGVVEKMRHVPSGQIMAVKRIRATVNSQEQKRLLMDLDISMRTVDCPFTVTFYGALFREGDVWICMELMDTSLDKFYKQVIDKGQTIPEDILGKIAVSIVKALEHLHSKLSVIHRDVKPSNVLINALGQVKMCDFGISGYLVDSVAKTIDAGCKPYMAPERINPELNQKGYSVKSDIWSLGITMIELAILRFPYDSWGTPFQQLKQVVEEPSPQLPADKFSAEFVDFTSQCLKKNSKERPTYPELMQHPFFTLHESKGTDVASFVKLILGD
# Sequence of Mast/stem cell growth factor receptor Kit (Homo sapiens), P10721 [L576P] (P10721 whole entry L576P, the tested form may be a part): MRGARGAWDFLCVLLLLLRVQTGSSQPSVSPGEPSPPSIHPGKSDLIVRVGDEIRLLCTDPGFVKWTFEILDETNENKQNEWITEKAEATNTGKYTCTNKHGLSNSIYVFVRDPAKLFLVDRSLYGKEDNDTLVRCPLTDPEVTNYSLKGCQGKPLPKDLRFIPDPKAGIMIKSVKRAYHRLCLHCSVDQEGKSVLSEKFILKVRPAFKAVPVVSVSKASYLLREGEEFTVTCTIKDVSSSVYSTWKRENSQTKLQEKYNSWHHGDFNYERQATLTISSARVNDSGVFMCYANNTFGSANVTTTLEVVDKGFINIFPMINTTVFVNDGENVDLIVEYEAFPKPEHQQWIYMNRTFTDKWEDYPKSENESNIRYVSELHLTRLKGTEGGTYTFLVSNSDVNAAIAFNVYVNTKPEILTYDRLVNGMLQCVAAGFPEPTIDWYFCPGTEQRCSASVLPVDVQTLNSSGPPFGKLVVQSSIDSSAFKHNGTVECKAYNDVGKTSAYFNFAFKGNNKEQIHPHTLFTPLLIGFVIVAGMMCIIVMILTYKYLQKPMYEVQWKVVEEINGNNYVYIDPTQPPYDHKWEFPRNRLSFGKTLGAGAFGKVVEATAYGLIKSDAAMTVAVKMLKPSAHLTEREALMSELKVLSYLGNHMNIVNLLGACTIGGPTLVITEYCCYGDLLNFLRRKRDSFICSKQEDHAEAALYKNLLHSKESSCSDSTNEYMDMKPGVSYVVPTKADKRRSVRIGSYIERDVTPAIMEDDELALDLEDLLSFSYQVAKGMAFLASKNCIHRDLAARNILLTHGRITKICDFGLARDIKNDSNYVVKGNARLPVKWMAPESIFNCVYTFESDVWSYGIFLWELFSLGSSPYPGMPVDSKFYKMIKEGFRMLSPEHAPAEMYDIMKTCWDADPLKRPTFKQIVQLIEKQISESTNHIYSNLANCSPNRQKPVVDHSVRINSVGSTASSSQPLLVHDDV
smiles,measurement,setting,value
O=C(Nc1cccc([C@@H]2CN(c3ncnc4[nH]ccc34)CCN2CCO)c1)Nc1c(F)cccc1N1CCCC1,inhibition,[1],35%
same,inhibition,[2],100%
same,inhibition,[3],100%
same,inhibition,[4],67%
same,inhibition,[5],81%
same,inhibition,[6],37%
same,inhibition,[7],88%
same,inhibition,[8],100%
same,inhibition,[9],100%
same,inhibition,[10],100%
same,inhibition,[11],86%
same,inhibition,[12],100%
same,IC50,[13],240 nM
O=C(Nc1cccc([C@H]2CCCN(c3ncnc4[nH]ccc34)C2)c1)Nc1ccccc1N1CCCC1,inhibition,[14],85%
same,inhibition,[15],60%
same,inhibition,[16],81%
same,inhibition,[17],51%
same,inhibition,[18],51%
same,inhibition,[19],100%
same,inhibition,[20],37%
same,inhibition,[21],74%
same,inhibition,[22],72%
same,inhibition,[23],48%
same,inhibition,[24],0.2%
same,inhibition,[25],96%
same,inhibition,[26],100%
same,inhibition,[27],75%
same,inhibition,[28],86%
